Measured values taken from patent US6596703B1, “Promotion of wound healing utilizing steroids having reduced deteriorous systemic side effects typical of glucocorticoids, mineralocorticoids and sex steroids” (Jagotec AG, priority 1997, dated 2003).
“Also recorded” adds a separate entry of the source. Like-named read-outs stand apart in the source and are kept apart here.

Experiments:
[1] = test system: murine chronic granulomatous air pouch; assay: Inflammation-induced angiogenesis in the murine chronic granulomatous air pouch, s.c. dosing from induction (day 0) to day 6; assay type: in vivo, mice; details: for Vascular Index: mean ± s.e.m.; for angiostatic action: administered alone s.c. 1 mg/kg, no heparin, prophylactic dosing (Tables 1, 2)
Description: (§1) Chronic granulomatous air pouches were raised in mice by known methods (the reader is referred to PCT/CA94/00207 at page 16 for an experimental method in this regard) utilizing 0.5 ml Freund's Complete adjuvant with 0.1% croton oil injected into 1 day old air pouches. Animals were dosed with saline/0.01% DMSO either subcutaneously (s.c.) into the nape of the neck, or with saline applied topically in 0.1 ml 2.5% hyaluronan. Vascular casts incorporating carmine in gelatin were formed at termination, the tissues weighed dry (mg), papain digested, and the carmine content (μg) determined by spectrophotometric assay. Vascularity was calculated as the Vascularity Index (μg/mg). Results are expressed as means±s.e.m.
Investigation of the action of tetrahydrocortisol, tetrahydrocortisone and tetrahydrocortexolone and the like on inflammation-induced angiogenesis in the murine chronic granulomatous air pouch was pursued. Groups of mice (n=8-13) were dosed with tetrahydrocortisol, tetrahydrocortisone or tetrahydrocortexolone or the like (0.1-3.0 mg/kg in 0.1 ml saline/0.01% DMSO, s.c) daily from induction (day 0) to termination on day 6. Controls were dosed with 0.1 ml saline/0.01% DMSO subcutaneously.
Investigation of the action of angiostatic and anti-inflammatory steroids on inflammation-induced angiogenesis in the murine chronic granulomatous air pouch was pursued. Groups of mice (n=8-13) were treated with the steroids at 1.0 mg/kg (0.1 ml saline/0.01% DMSO, s.c), except of dexamethasone at (0.2 mg/kg), daily from the day of induction (day 0) to termination on day 6. Controls were given 0.1 ml saline/0.01% DMSO s.c. (Key: Tetrahydrocortisol (TH-F), Tetrahydrocortisone (TH-E).

[2] = test system: murine chronic granulomatous air pouch; assay: Inflammatory-induced angiogenesis in the murine chronic granulomatous air pouch, topical application in 2.5% hyaluronan; assay type: in vivo, mice; details: for effect on angiogenesis: topical application (1 mg/kg) in 2.5% hyaluronan; for Vascular Index: 0.1 ml 2.5% hyaluronan alone topically daily day 0 to day 6
Description: as §1
Investigation of the action of topical tetrahydrocortisol, tetrahydrocortisone, tetrahydrocortexolone and the like on inflammatory-induced angiogenesis in the murine chronic granulomatous air pouch was pursued. Groups of mice (n=8-13) were depilated and the inflammation induced 4 days later. Tetrahydrocortisol (TH-F) and tetrahydrocortisone (TH-E) were applied topically (1 mg/kg) in 2.5% hyaluronan (0.1 ml) daily from the day of induction (day 0) to termination (day 6). Controls were dosed with 0.1 ml 2.5% hyaluronan alone.
Investigation of the action of topical tetrahydrocortisol, tetrahydrocortisone and tetrahydrocortexolone and the like on inflammatory-induced angiogenesis in the murine chronic granulomatous air pouch was pursued. Groups of mice (n=8-13) were depilated and the inflammation induced 4 days later. Tetrahydrocortisol (TH-F) was applied topically with 2.5% hyaluronan (0.1 ml of composition 0.1-1.0 mg of tetrahydrocortisol/kg) by weight daily from the day of induction (day 0) to termination (day 6). Controls were dosed with 0.1 ml 2.5% hyaluronan alone.

[3] = test system: established 7-day old vasculature of the murine chronic granulomatous air pouch; assay: Established 7-day old vasculature of the murine chronic granulomatous air pouch, s.c. dosing from day 7 to day 14 or 21; assay type: in vivo, mice; details: for Vascular Index: Table 3
Description: as §1
Investigation of the action of tetrahydrocortisol, tetrahydrocortisone and tetrahydrocortexolone and the like on the established 7-day old vasculature of the murine chronic granulomatous air pouch was pursued. Groups of mice were dosed with tetrahydrocortisol, tetrahydrocortisone or tetrahydrocortexolone or the like (0.1-3.0 mg/kg in 0.1 ml saline/0.01% DMSO, s.c) daily from day 7 to termination at day 14 or day 21. Controls were dosed with 0.1 ml saline (0.01% DMSO alone).

[4] = test system: murine chronic granulomatous air pouch; details: s.c. at 1 mg/kg; reference (1); cited from earlier work
[5] = Table 1, 1 mg/kg s.c. daily day 0 to day 6
[6] = Table 2, 1.0 mg/kg s.c. daily day 0 to day 6

Compound: C[C@]12CCC(=O)C=C1CC[C@@H]1[C@@H]2C(=O)C[C@@]2(C)[C@H]1CC[C@]2(O)C(=O)CO [Cortisone, cortisone]
- Vascular Index [1, 5]: 8.23 ± 0.62 µg/mg
- angiostatic action [1]: inactive
- effect on angiogenesis [2]: angiostatic

Compound: C[C@]12CCC(O)C[C@H]1CC[C@@H]1[C@@H]2C(=O)C[C@@]2(C)[C@H]1CC[C@]2(O)C(=O)CO (some centres unmarked) [TH-E, 5-pregnane-3,17,21-triol-11,20-dione]
- Vascular Index [1, 6]: 18.860 ± 1.830 µg/mg
- angiostatic action [1]: without effect
- Vascular Index ([3]; 0.1 mg/kg s.c. daily from day 7, termination Day 14): 18.18 ± 1.97 µg/mg
- Vascular Index ([3]; 0.1 mg/kg s.c. daily from day 7, termination Day 21): 18.59 ± 1.84 µg/mg
- Vascular Index ([3]; 0.3 mg/kg s.c. daily from day 7, termination Day 14): 20.38 ± 1.91 µg/mg
- Vascular Index ([3]; 0.3 mg/kg s.c. daily from day 7, termination Day 21): 31.33 ± 2.91 µg/mg
- Vascular Index ([3]; 1.0 mg/kg s.c. daily from day 7, termination Day 14): 22.49 ± 3.77 µg/mg
- Vascular Index ([3]; 1.0 mg/kg s.c. daily from day 7, termination Day 21): 25.75 ± 2.40 µg/mg
- Vascular Index ([3]; 3.0 mg/kg s.c. daily from day 7, termination Day 14): 18.87 ± 1.29 µg/mg
- Vascular Index ([3]; 3.0 mg/kg s.c. daily from day 7, termination Day 21): 25.91 ± 1.85 µg/mg
- angiostatic action ([3]; s.c., no heparin, therapeutic dosing (Table 3)): without effect
- effect on angiogenesis ([2]; listed as tetrahydrocortisone): significant acceleration of angiogenesis; also recorded: Definite angiogenesis action
- effect on angiogenesis [4]: capable of inhibiting angiogenesis

Compound: C[C@]12CCC(O)CC1CC[C@@H]1[C@@H]2C(O)C[C@@]2(C)[C@H]1CC[C@]2(O)C(=O)CO (some centres unmarked) [TH-F, 5-pregnane-3,11,17,21-tetrol-20-one]
- Vascular Index [1, 5]: 5.29 ± 0.61 µg/mg
- Vascular Index [1, 6]: 13.088 ± 1.630 µg/mg
- angiostatic action [1]: decrease in vascularity
- effect on angiogenesis ([2]; listed as tetrahydrocortisol): significant acceleration of angiogenesis; also recorded: Definite angiogenesis action
- dose relation of acceleration of angiogenesis ([2]; topical in 2.5% hyaluronan, 0.1-1.0 mg/kg (Table 5)): dose related
- effect on angiogenesis [4]: capable of inhibiting angiogenesis

Compound: C[C@]12CC[C@@H](O)C[C@H]1CC[C@@H]1[C@@H]2CC[C@@]2(C)[C@H]1CC[C@]2(O)C(=O)CO [TH-S, tetrahydrocortexolone]
- effect on angiogenesis [4]: capable of inhibiting angiogenesis

Compound: heparin
- Vascular Index ([1]; Table 1, 1000 U p.o.): 7.93 ± 0.83 µg/mg

Compound: hyaluronan [HA]
- Vascular Index ([2]; Table 4): 11.180 ± 1.980 µg/mg
- Vascular Index ([2]; Table 5): 11.180 ± 1.98 µg/mg
